Assay [1] deals with methicillin-resistant Staphylococcus aureus (MRSA). Description: MIC by agar dilution against a clinical isolate of MRSA. It counts as cell-based. From the text:
The in vitro activity of compounds of the subject invention may be assessed by standard testing procedures such as the determination of minimum inhibitory concentration (MIC) by agar dilution as described in “Approved Standard. Methods for Dilution Antimicrobial Susceptibility Tests for Bacteria that Grow Aerobically,” 3rd ed., published 1993 by the National Committee for Clinical Laboratory standards, Villanova, Pa., USA.
The in vitro MICs of test compounds may be determined by a standard agar dilution method. A stock drug solution of each analog is prepared in a preferred solvent, usually DMSO:H2O (1:3). Serial 2-fold dilutions of each sample are made using 1.0 ml aliquots of sterile distilled water. To each 1.0 ml aliquot of drug is added 9 ml of molten Mueller Hinton agar medium. The drug-supplemented agar is mixed, poured into 15×100 mm petri dishes, and allowed to solidify and dry prior to inoculation.
Vials of each of the test microorganisms are maintained frozen in the vapor phase of a liquid nitrogen freezer. Test cultures are grown overnight at 35° C. on the medium appropriate for the microorganism. Colonies are harvested with a sterile swab, and cell suspensions are prepared in Trypticase Soy broth (TSB) to equal the turbidity of a 0.5 McFarland standard. A 1:20 dilution of each suspension is made in TSB. The plates containing the drug supplemented agar are inoculated with a 0.001 ml drop of the cell suspension using a Steers replicator, yielding approximately 10^4 to 10^5 cells per spot. The plates are incubated overnight at 35° C.
Following incubation the Minimum Inhibitory Concentration (MIC μg/ml), the lowest concentration of drug that inhibits visible growth of the microorganism, is read and recorded.
Compounds of this invention can have useful activity against a variety of pathogenic microorganisms. The in vitro activity of compounds of this invention can be assessed by standard testing procedures such as the determination of minimum inhibitory concentration (MIC) by agar dilution as described in “Approved Standard. Methods for Dilution Antimicrobial Susceptibility Tests for Bacteria That Grow Aerobically”, 3rd. ed., published 1993 by the National Committee for Clinical Laboratory Standards, Villanova, Pa., USA. Minimum inhibitory concentration (MIC) refers to the lowest concentration of drug (μg/mL) that inhibits visible growth of the organism. Lower MIC values indicate a higher antibacterial activity. […] The activity of compounds of present invention against a clinical isolate of methicillin-resistant Staphylococcus aureus (MRSA; from the Massachusetts General Hospital, USA) is exemplified by the MIC data of Table 1.

Assay [2] concerns the target T1, Human monoamine oxidase (MOA) A type enzyme (Homo sapiens, UniProt P21397).
T1 sequence (P21397 1-527): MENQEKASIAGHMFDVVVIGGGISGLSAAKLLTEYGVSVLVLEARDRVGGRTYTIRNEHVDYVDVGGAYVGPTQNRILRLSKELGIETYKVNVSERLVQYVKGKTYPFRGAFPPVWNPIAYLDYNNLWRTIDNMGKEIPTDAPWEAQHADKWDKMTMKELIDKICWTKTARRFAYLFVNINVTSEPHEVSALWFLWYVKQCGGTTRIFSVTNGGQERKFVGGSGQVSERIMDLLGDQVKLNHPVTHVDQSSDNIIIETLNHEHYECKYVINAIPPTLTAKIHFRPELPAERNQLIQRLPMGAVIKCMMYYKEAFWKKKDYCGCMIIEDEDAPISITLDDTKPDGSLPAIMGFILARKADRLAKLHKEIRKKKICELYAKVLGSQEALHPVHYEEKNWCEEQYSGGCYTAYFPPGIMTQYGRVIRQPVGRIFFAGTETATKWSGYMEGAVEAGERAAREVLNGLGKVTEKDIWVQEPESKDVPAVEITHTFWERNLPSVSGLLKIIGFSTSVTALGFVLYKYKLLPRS
Nature of the assay: MAO A inhibition, MAO-Glo assay kit (Promega). The class given is biochemical. As to conditions: luminogenic substrate; for IC50: read-out: MAO-I IC50, μg/mL (converted). As for the experimental part:
Human monoamine oxidase (MOA) A type enzyme inhibition activity for select compounds was measured using a commercial MAO assay kit MAO-Glo™ from Promega Co. (USA). The assay was performed as described in the company's technical bulletin MAOGlo™ Assay”. The protocol involves an incubation of the MAO A enzyme with a luminogenic MAO substrate to produce an enzymatic product which is converted to luciferin by a coupled reaction. The released luciferin undergoes further transformation to generate light that is detected and measured. The amount of the light is directly proportional to the activity of MAO. Percent inhibition at several concentrations is established relative to the uninhibited control rate, and the IC50 values are calculated. […] The MAO inhibition data for select compound of this invention are illustrated in the Table 1.

Where [3] appears, read: Staphylococcus aureus, read-out: MRSA, MIC, μg/mL.
Setting [4] is: clinical isolate of methicillin-resistant Staphylococcus aureus (Massachusetts General Hospital, USA), agar dilution, read-out: MRSA, MIC.

In brackets after ≈: the same amount, converted by molar mass. Read-outs that look alike come from different tables or passages of the source.

Take `CC(=O)NC[C@@H]1OC(=O)N2c3ccc(-c4ccc(-c5nnn(C)n5)nc4)cc3C[C@@H]12` [Example 1, N-(((1S,9aS)-7-(6-(2-methyl-2H-tetrazol-5-yl)pyridin-3-yl)-3-oxo-1,3,9,9a-tetrahydrooxazolo[3,4-a]indol-1-yl)methyl)acetamide]: the MIC in assay [1] (setting [3]) turned out to be 0.5 µg/mL (≈ 1.23 µM). For `CC(=O)NC[C@@H]1OC(=O)N2c3ccc(-c4ccc(-c5nnnn5C)nc4)cc3C[C@@H]12` [Example 2, N-(((1S,9aS)-7-(6-(1-methyl-1H-tetrazol-5-yl)pyridin-3-yl)-3-oxo-1,3,9,9a-tetrahydrooxazolo[3,4-a]indol-1-yl)methyl)acetamide], in assay [1] (setting [4]), the MIC came to 0.5 µg/mL (≈ 1.23 µM). For `CC(=O)NC[C@@H]1OC(=O)N2c3ccc(-c4ccc(N5CCOC5=O)nc4)cc3C[C@@H]12` [Example 3, N-(((1S,9aS)-3-oxo-7-(6-(2-oxooxazolidin-3-yl)pyridin-3-yl)-1,3,9,9a-tetrahydrooxazolo[3,4-a]indol-1-yl)methyl)acetamide], the MIC in assay [1] (setting [3]) came out at 0.25 µg/mL (≈ 0.612 µM). Regarding `CC(=O)NC[C@@H]1OC(=O)N2c3ccc(-c4ccc(-n5cnnn5)nc4)cc3C[C@@H]12` [Example 4, N-(((1S,9aS)-7-(6-(1H-tetrazol-1-yl)pyridin-3-yl)-3-oxo-1,3,9,9a-tetrahydrooxazolo[3,4-a]indol-1-yl)methyl)acetamide], in assay [1] (setting [4]), the MIC was 0.5 µg/mL (≈ 1.28 µM). Moreover, the IC50 in assay [2] is 353 µM. `CC(=O)NC[C@@H]1OC(=O)N2c3ccc(N4Cc5cccnc5C4)cc3C[C@@H]12` [Example 6, N-(((1S,9aS)-3-oxo-7-(5H-pyrrolo[3,4-b]pyridin-6(7H)-yl)-1,3,9,9a-tetrahydrooxazolo[3,4-a]indol-1-yl)methyl)acetamide]: the MIC in assay [1] (setting [4]) worked out at 0.5 µg/mL (≈ 1.37 µM).

With `CC(=O)NC[C@@H]1OC(=O)N2c3ccc(-c4ccc(C5=NOC(CO)C5)nc4)cc3C[C@@H]12` (stereo partly drawn) [Example 8, N-(((1S,9aS)-7-(6-(5-(hydroxymethyl)-4,5-dihydroisoxazol-3-yl)pyridin-3-yl)-3-oxo-1,3,9,9a-tetrahydrooxazolo[3,4-a]indol-1-yl)methyl)acetamide], the MIC in assay [1] (setting [3]) is 1 µg/mL (≈ 2.37 µM). Regarding `CC(=O)NC[C@@H]1OC(=O)N2c3ccc(-c4ccc(C(=O)Cn5ccnc5)nc4)cc3C[C@@H]12` [Example 11, N-(((1S,9aS)-7-(6-(2-(1H-imidazol-1-yl)acetyl)pyridin-3-yl)-3-oxo-1,3,9,9a-tetrahydrooxazolo[3,4-a]indol-1-yl)methyl)acetamide], the MIC in assay [1] (setting [3]) stood at 1 µg/mL (≈ 2.32 µM). Further, the IC50 in assay [2] is above 232 µM.

`CC(=O)NC[C@@H]1OC(=O)N2c3ccc(-c4ccc([C@@]5(C#N)[C@@H]6CNC[C@@H]65)nc4)cc3C[C@@H]12` [Example 18, N-(((1S,9aS)-7-(6-((1R,5S,6s)-6-cyano-3-azabicyclo[3.1.0]hexan-6-yl)pyridin-3-yl)-3-oxo-1,3,9,9a-tetrahydrooxazolo[3,4-a]indol-1-yl)methyl)acetamide]: in assay [1] (setting [4]), the MIC turned out to be 0.5 µg/mL (≈ 1.16 µM). For the same compound, in assay [2], the IC50 is above 233 µM. Consider `CC(=O)NC[C@H]1CN(c2ccc(N3CCOCC3)c(F)c2)C(=O)O1` [Linezolid, linezolid, reference compound], for which the MIC in assay [1] (setting [4]) turned out to be 2 µg/mL (≈ 5.93 µM). Besides, the “MAO-I IC50” value in assay [2] came out at 5 µg/mL.

Source of the values: US20120157434A1, “Antimicrobial heterocyclic compounds for treatment of bacterial infections” (CSO of MicuRx Pharmaceuticals, Inc., priority 2007, published 2012).
